≈ marks a conversion by molar mass, not a printed value. Non-standard residues stand in square brackets, D forms with d. Residues, ends and D or L forms follow the SMILES beside them. No end group written: not given here.
How the values were obtained:
MRSA (NCTC 12493) [1] = type: cell-based, methicillin-resistant Staphylococcus aureus; details: NCTC 12493, 24 h
Experimental: (§1) The antimicrobial activities of peptides were evaluated against the Gram-positive bacteria, S. aureus (ATCC 6538), methicillin-resistant Staphylococcus aureus (MRSA) (NCTC 12493), Enterococcus faecalis (E. faecalis) (NCTC 12697); the Gram-negative bacteria, E. coli (ATCC CRM 8739), Klebsiella pneumoniae (K. pneumoniae) (ATCC 43816), Pseudomonas aeruginosa (P. aeruginosa) (ATCC CRM 9027); and the yeast, Candida albicans (C. albicans) (ATCC CRM 10231). Clinical isolates of MRSA (B042 V2E1 A), E. coli (ATCC BAA-2340), K. pneumoniae (ATCC BAA-1705), and P. aeruginosa (B004 V2S2 B) were also used to determine their antimicrobial activities. The suspension of microorganisms in the logarithmic growth phase with a specific final density (Gram-negative and Gram-positive bacteria: 5 × 10^5 CFU/mL; yeast: 1 × 10^6 CFU/mL) was incubated with different peptide concentrations from 1 µM to 512 µM at 37 °C for 24 h. PBS was used as the negative control, and norfloxacin and amphotericin B were selected as the positive control for bacteria and yeast, respectively. Since the Norfloxacin had weak activities against P. aeruginosa (B004 V2S2 B) and K. pneumoniae (ATCC BAA 1705), gentamicin was used as the positive control for these two bacterial strains. The absorbance of each well was obtained using a microplate reader (EL808, Biolise BioTek, Winooski, VT, USA) set at 550 nm wavelength. The MIC value was the lowest concentration of a peptide that inhibits visible bacterial growth. Once the MIC values were determined, an aliquot from the bacterial culture exposed to the peptide at or above its MIC value was inoculated on a Mueller Hinton agar (MHA) and was incubated at 37 for 18 h. The MBC value was the lowest concentration of a peptide that kills 99.9% of bacteria.
(§2) According to the procedures in a previous article, the analysis of the sensitivity of the peptides was determined by measuring MIC values in the presence of different types of salts and 10% fetal bovine serum. MRSA (NCTC 12493) and K. pneumoniae (ATCC 43816) were selected as the subjects of these assays. Various salts at different concentrations, including 150 mM NaCl, 4.5 mM KCl, 6 μM NH4Cl, 1 mM MgCl2, […], […], and 10% serum (Gibco, Auckland, New Zealand), were added to the MHB medium for the examination of the MIC values which were determined as described in Section 2.7.

[2] = system: K. pneumoniae (ATCC 43816); type: cell-based, Klebsiella pneumoniae; details: ATCC 43816, 24 h
Experimental: as §1, §2

[3] = system: P. aeruginosa (ATCC CRM 9027) biofilm; type: cell-based, Pseudomonas aeruginosa; details: ATCC CRM 9027, 24 h
Experimental: (§3) The anti-biofilm activities of the peptides against S. aureus (ATCC 6538), MRSA (NCTC 12493), E. faecalis (NCTC 12697), E. coli (ATCC CRM 8739), K. pneumoniae (ATCC 43816), and P. aeruginosa (ATCC CRM 9027), were evaluated. For the MBIC assay, 99 µL of bacterial suspension (5 × 10^5 CFU/mL) was mixed with 1 µL of serial dilutions (from 100 µM to 51,200 µM) of temporin-PKE and its analogues in a 96-well plate, and the plate was incubated in a moist shaking incubator at a speed of 200 rpm at 37 °C for 24 h. For the MBEC assay, 100 µL of bacterial suspension (5 × 10^5 CFU/mL) in each well was seeded in a new 96-well plate, and the plate was put into the same shaking incubator for 24 h incubation to allow biofilm formation on the well. After biofilm formation, the biofilm in the plate was washed with PBS twice. The PBS was aspirated between washes to remove planktonic bacterial cells. The washed biofilm in each well was treated with 100 µL of serial dilutions (from 1 µM to 512 µM) of the test peptides. Then, the plate was incubated in the same shaking incubator for another 24 h. After being washed by PBS twice and fixed with methanol, the biofilm in each well was incubated with 100 µL of 0.1% crystal violet for 30 min, and the stained biofilm was dissolved in 100 µL of glacial acidic acid after drying. The solutions were transferred to a new microplate, and the absorbance of each well was measured using a microplate reader (EL808, Biolise BioTek, Winooski, VT, USA) set to 595 nm wavelength. The MBIC was the minimum concentration of the peptide showing no biofilm formation. The MBEC is the lowest concentration of the peptide capable of eradicating the mature biofilms, which had no biofilm in the well.

MRSA (NCTC 12493) [4] = assay: microbe, parasite or virus in culture; type: cell-based, methicillin-resistant Staphylococcus aureus; details: for MBC: NCTC 12493, 18 h; for MIC: NCTC 12493, 24 h
Experimental: as §1

MRSA (B042 V2E1 A) = assay: microbe, parasite or virus in culture; type: cell-based, methicillin-resistant Staphylococcus aureus; details: B042 V2E1 A; for MBC: 18 h; for MIC: 24 h
Experimental: as §1

[5] = system: MRSA (NCTC 12493) biofilm; type: cell-based, methicillin-resistant Staphylococcus aureus; details: NCTC 12493, 24 h
Experimental: as §3

Molecule | MIC against MRSA in the presence of 4 µM FeCl3 (MRSA (NCTC 12493) [1]) | MIC against MRSA in the presence of 6 µM NH4Cl (MRSA (NCTC 12493) [1]) | MIC against MRSA in the presence of 8 µM ZnCl2 (MRSA (NCTC 12493) [1]) | MIC against MRSA in the presence of 1 mM MgCl2 (MRSA (NCTC 12493) [1]) | MIC against MRSA in the presence of 2 mM CaCl2 (MRSA (NCTC 12493) [1]) | MIC against MRSA in the presence of 4.5 mM KCl (MRSA (NCTC 12493) [1]) | MIC against MRSA in the presence of 150 mM NaCl (MRSA (NCTC 12493) [1]) | MIC against MRSA in the presence of 10% FBS (MRSA (NCTC 12493) [1]) | MIC against MRSA, Negative (MRSA (NCTC 12493) [1]) | MIC against K. pneumoniae in the presence of 4 µM FeCl3 [2] | MIC against K. pneumoniae in the presence of 6 µM NH4Cl [2] | MIC against K. pneumoniae in the presence of 8 µM ZnCl2 [2] | MIC against K. pneumoniae in the presence of 1 mM MgCl2 [2] | MIC against K. pneumoniae in the presence of 2 mM CaCl2 [2] | MIC against K. pneumoniae in the presence of 4.5 mM KCl [2] | MIC against K. pneumoniae in the presence of 150 mM NaCl [2] | MIC against K. pneumoniae in the presence of 10% FBS [2] | MIC against K. pneumoniae, Negative [2] | MBIC [3] | MBC (MRSA (NCTC 12493) [4]) | further results
FLPKIIGKLSSKLPKIF-NH2 [Temporin-PKE-4K] | 32 µM | 32 µM | 128 µM | 32 µM | 64 µM | 32 µM | 128 µM | 128 µM | 32 µM | 16 µM | 16 µM | 16 µM | 64 µM | 128 µM | 16 µM | 64 µM | 64 µM | 16 µM | 128 µM | 32 µM | MIC (MRSA (NCTC 12493) [4]): 32 µM; MBC (MRSA (B042 V2E1 A)): 16 µM; MIC (MRSA (B042 V2E1 A)): 16 µM; MBIC [5]: 32 µM
FLPLIIGKLSSLLPKIF-NH2 [Temporin-PKE-2K] | 2 µM | 4 µM | 16 µM | 4 µM | 4 µM | 4 µM | 8 µM | 8 µM | 2 µM | 16 µM | 16 µM | 16 µM | 32 µM | 32 µM | 16 µM | 128 µM | 64 µM | 16 µM | >512 µM | 2 µM | MIC (MRSA (NCTC 12493) [4]): 2 µM; MBC (MRSA (B042 V2E1 A)): 2 µM; MIC (MRSA (B042 V2E1 A)): 2 µM; MBIC [5]: 2 µM
CC[C@@H](C)[C@@H](NC(=O)[C@H](CCCCN)NC(=O)[C@@H]1CCCN1C(=O)[C@H](CC(C)C)NC(=O)[C@H](CC(C)C)NC(=O)[C@H](CO)NC(=O)[C@H](CO)NC(=O)[C@H](CC(C)C)NC(=O)[C@H](C)NC(=O)CNC(=O)[C@H](NC(=O)[C@H](NC(=O)[C@H](CC(C)C)NC(=O)[C@@H]1CCCN1C(=O)[C@H](CC(C)C)NC(=O)[C@@H](N)Cc1ccccc1)[C@H](C)CC)[C@H](C)CC)C(=O)N[C@@H](Cc1ccccc1)C(N)=O [Temporin-PKE-3i] (H-FLPL[dI][dI]GALSSLLPK[dI]F-NH2) | 128 µM | 256 µM | 512 µM | 256 µM | 256 µM | 512 µM | 512 µM | 512 µM | 64 µM (≈ 118 µg/mL) | >512 µM | >512 µM | >512 µM | >512 µM | >512 µM | >512 µM | >512 µM | >512 µM | >512 µM | >512 µM | 64 µM (≈ 118 µg/mL) | MIC (MRSA (NCTC 12493) [4]): 64 µM (≈ 118 µg/mL); MBC (MRSA (B042 V2E1 A)): 64 µM (≈ 118 µg/mL); MIC (MRSA (B042 V2E1 A)): 64 µM (≈ 118 µg/mL); MBIC [5]: 64 µM

Reference: PMC9221509, “Discovery of a Novel Antimicrobial Peptide, Temporin-PKE, from the Skin Secretion of Pelophylax kl. esculentus, and Evaluation of Its Structure-Activity Relationships” (Biomolecules, 2022)
